The text below walks through data of patent US7659270B2, “Hepatitis C virus inhibitors” (Bristol-Myers Squibb Company, priority 2006, dated 2010).

Read-outs that look alike come from different tables or passages of the source.

The test concerns HCV 1b-377-neo replicon cells. Kind of test: HCV replicon assay (HCV 1b-377-neo replicon cells). The test is classed as cell-based, Hepatitis C virus genotype 1b. The note with it: read-out: EC50 range against HCV 1b (Range). The method in brief:
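HCV genotype 1b (1b-377-neo) replicon cells, run as a validated replicon assay; parallel testing in replicon cells carrying the NS5A Y2065H resistance mutation.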
For orientation: A replicon is a self-replicating genome or part of one, used to study replication in cells.

The EC50 is the concentration that produces a half-maximal response. Consider `COC(=O)N[C@H](C(=O)N1CCC[C@H]1c1ncc(-c2ccc(-c3ccc(-c4cnc([C@@H]5CCCN5C(=O)[C@@H](NC(=O)OC)C(C)C)[nH]4)cc3CO)cc2)[nH]1)C(C)C` [Example M119, methyl((1S)-1-(((2S)-2-(5-(2-(hydroxymethyl)-4′-(2-((2S)-1-((2S)-2-((methoxycarbonyl)amino)-3-methylbutanoyl)-2-pyrrolidinyl)-1H-imidazol-5-yl)-4-biphenylyl)-1H-imidazol-2-yl)-1-pyrrolidinyl)carbonyl)-2-methylpropyl)carbamate], for which, under “Hepatitis C virus”, the EC50 was in the range of 100 to 999 nM.

On to `COC(=O)N[C@H](C(=O)N1CCC[C@H]1c1ncc(-c2ccc(-c3ccc(-c4cnc([C@@H]5CCCN5C(=O)[C@@H](NC(=O)OC)C(C)C)[nH]4)cc3CN(C)C)cc2)[nH]1)C(C)C` [Example M120, methyl((1S)-1-(((2S)-2-(5-(2-((dimethylamino)methyl)-4′-(2-((2S)-1-((2S)-2-((methoxycarbonyl)amino)-3-methylbutanoyl)-2-pyrrolidinyl)-1H-imidazol-5-yl)-4-biphenylyl)-1H-imidazol-2-yl)-1-pyrrolidinyl)carbonyl)-2-methylpropyl)carbamate], for which the EC50 (Hepatitis C virus) was 100 to 999 nM.

For the compound `COC(=O)N[C@@H](C(=O)N1CCC[C@H]1c1ncc(-c2ccc(-c3ccc(-c4cnc([C@@H]5CCCN5C(=O)[C@H](NC(=O)OC)c5ccccc5)[nH]4)cc3CN(C)C)cc2)[nH]1)c1ccccc1` [Example M121, dimethyl((2-((dimethylamino)methyl)-4,4′-biphenyldiyl)bis(1H-imidazole-5,2-diyl(2S)-2,1-pyrrolidinediyl((1R)-2-oxo-1-phenyl-2,1-ethanediyl)))biscarbamate], the EC50 (Hepatitis C virus) is 100 to 999 nM.

With `COC(=O)N[C@H](C(=O)N1[C@H](c2ncc(-c3ccc(-c4ccc(-c5cnc([C@@H]6C[C@@H]7C[C@@H]7N6C(=O)[C@@H](NC(=O)OC)C(C)C)[nH]5)cc4)cc3)[nH]2)C[C@@H]2C[C@@H]21)C(C)C` [Example M122, methyl((1S)-1-(((1S,3S,5S)-3-(5-(4′-(2-((1S,3S,5S)-2-((2S)-2-((methoxycarbonyl)amino)-3-methylbutanoyl)-2-azabicyclo[3.1.0]hex-3-yl)-1H-imidazol-5-yl)-4-biphenylyl)-1H-imidazol-2-yl)-2-azabicyclo[3.1.0]hex-2-yl)carbonyl)-2-methylpropyl)carbamate], the EC50 (Hepatitis C virus) lay in the range of 1 to 99 nM.

On to `CNCC(=O)N1CCC[C@H]1c1ncc(-c2ccc(-c3ccc(-c4cnc([C@@H]5CCCN5C(=O)[C@@H](NC(=O)OC)C(C)C)[nH]4)cc3)cc2)[nH]1` [LS20], for which the half-maximal effective concentration (EC50) was in the range of 0.01 to 0.999 nM.

As for `CCC(C)NCC(=O)N1CCC[C@H]1c1ncc(-c2ccc(-c3ccc(-c4cnc([C@@H]5CCCN5C(=O)[C@@H](NC(=O)OC)C(C)C)[nH]4)cc3)cc2)[nH]1` (stereo partly drawn) [LS24], the concentration giving a half-maximal response (EC50) was 0.01 to 0.999 nM.

Turning to `COC(=O)N[C@H](C(=O)N1CCC[C@H]1c1ncc(-c2ccc(-c3ccc(-c4cnc([C@@H]5CCCN5C(=O)[C@@H](Nc5ncccn5)C(C)C)[nH]4)cc3)cc2)[nH]1)C(C)C` [cj-11, methyl((1S)-2-methyl-1-(((2S)-2-(5-(4′-(2-((2S)-1-(N-2-pyrimidinyl-L-valyl)-2-pyrrolidinyl)-1H-imidazol-5-yl)-4-biphenylyl)-1H-imidazol-2-yl)-1-pyrrolidinyl)carbonyl)propyl)carbamate], the EC50 (Hepatitis C virus) lay within 0.01 to 0.999 nM.

For the compound `COC(=O)N[C@H](C(=O)N1CCC[C@H]1c1ncc(-c2ccc(-c3ccc(-c4cnc([C@@H]5CCCN5C(=O)[C@@H](Nc5noc(N)n5)C(C)C)[nH]4)cc3)cc2)[nH]1)C(C)C` [cj-16, methyl((1S)-1-(((2S)-2-(5-(4′-(2-((2S)-1-(N-(5-amino-1,2,4-oxadiazol-3-yl)-L-valyl)-2-pyrrolidinyl)-1H-imidazol-5-yl)-4-biphenylyl)-1H-imidazol-2-yl)-1-pyrrolidinyl)carbonyl)-2-methylpropyl)carbamate], the EC50 (Hepatitis C virus) lay in the range of 0.01 to 0.999 nM.

On to `COC(=O)N[C@H](C(=O)N1CCC[C@H]1c1ncc(-c2ccc(-c3ccc(-c4cnc([C@@H]5CCCN5C(=O)[C@@H](NC(=NC#N)N(C)C)C(C)C)[nH]4)cc3)cc2)[nH]1)C(C)C` [cj-17, methyl((1S)-1-(((2S)-2-(5-(4′-(2-((2S)-1-(N-(cyano(dimethyl)carbamimidoyl)-L-valyl)-2-pyrrolidinyl)-1H-imidazol-5-yl)-4-biphenylyl)-1H-imidazol-2-yl)-1-pyrrolidinyl)carbonyl)-2-methylpropyl)carbamate], for which the EC50 (Hepatitis C virus) was in the range of 0.01 to 0.999 nM.
